Source: US20070167499A1, “Biaryl linked hydroxamates: preparation and pharmaceutical applications” (A*BIO Pte Ltd., priority 2003, published 2007)
Like-named read-outs stand apart in the source and are kept apart here.

What was measured:
MDA-MB435 = assay: Cell-based proliferation assay for determination of GI50 values, breast cancer cell line; conditions: Homo sapiens, MDA-MB-435; 96 h treatment, cyquant cell proliferation assay; read-out: Cellular activities GI50, MDA-MB435
Experimental: (§1) Cell-based Proliferation assay for determination of GI50 values
(§2) Three different cancer cell lines were obtained from ATCC: Human colon cancer cell line (Colo205), human breast cancer cell lines (MDA-MB435), and human lung cancer cell line (NCl-H522). Colo205 cells and NCl-H522 were cultivated in RPMI 1640 containing 2 mM
(§3) L-Glutamine, 5% FBS, 1.0 mM Na Pyruvate. MDA-MB435 cells were cultivated in DMEM containing 2 mM L-Glutamine, 5% FBS. Colo205 cells were seeded in 96-wells plate at 2000 and 5000 cells per well respectively. MDA-MB435 and NCl-H522 cells were seeded in 96-wells plate at 6000 cells per well. The plates were incubated at 37° C., 5% CO2, for 24 h. Cells were treated with compounds at various concentrations for 96 h. Cell growth was then monitored using cyquant cell proliferation assay (Invitrogen Pte Ltd). Dose response curves were plotted to determine GI50 values for the compounds using XL-fit (ID Business Solution, Emeryville, Calif.).

[1] = test system: acetylated H4 in Colo205 cells; assay: Histone H4 acetylation assay (western-blot); type: cell-based, human; design: key: “Active” means accumulation of acetylated histone was observed when compared with control (without compound); conditions: Colo205 cells, 0.1, 1, 5 and 10 μM, after 24 h
Experimental: Histone H3, H4 and H2A acetylation assay
A hallmark of histone deacetylase (HDAC) inhibition is the increase in the acetylation level of histones. Histone acetylation, including H3, H4 and H2A can be detected by immuno-blotting (western-blot). Colo205 cells, approximately 1.5×10^6 cells/10 cm dish, were seeded in the previously described medium, cultivated for 24 h and subsequently treated with HDAC inhibitory agents at 0.1, 1, 5 and 10 μM final concentration. After 24 h, cells were harvested and lysed according to the instruction from Sigma Mammalian Cell Lysis Kit. The protein concentration was quantified using BCA method (Sigma Pte Ltd). The protein lysate was separated using 4-12% bis-tris SDS-PAGE gel (Invitrogen Pte Ltd) and was transferred onto PVDF membrane (BioRad Pte Ltd). The membrane was probed separately using primary antibody specific for acetylated H3, acetylated H4 or acetylated H2A (Upstate Pte Ltd). The detection antibody, goat anti rabbit antibody conjugated with horse radish peroxidase (HRP) was used according to the manufacturing instruction (Pierce Pte Ltd). After removing the detection antibody from the membrane, an enhanced chemiluminescent substrate for detection of HRP (Pierce Pte Ltd) was added onto the membrane. After removing the substrate, the membrane was exposed to an X-ray film (Kodak) for 1 sec-20 mins. The X-ray film was developed using the X-ray film processor. The density of each band observed on the developed film could be analysed using UVP Bioimaging software (UVP, Inc, Upland, Calif.). The values were then normalized against the density of actin in the corresponding samples to obtain the expression of the protein.

HDAC8 enzyme (GST-HDAC8) = biological target: T1, HDAC8 enzyme (GST-HDAC8) (Homo sapiens, UniProt Q9BY41); assay: In vitro HDAC assay for determination of IC50 values (BIOMOL fluorescent-based HDAC activity assay), HDAC8; type: biochemical
T1 construct: Amplification of human HDAC1 and HDAC8 coding region from this cDNA library; made in house; host or cells: SF9 insect cells (baculovirus, pFASTBAC vector)
T1 sequence (Q9BY41 1-377): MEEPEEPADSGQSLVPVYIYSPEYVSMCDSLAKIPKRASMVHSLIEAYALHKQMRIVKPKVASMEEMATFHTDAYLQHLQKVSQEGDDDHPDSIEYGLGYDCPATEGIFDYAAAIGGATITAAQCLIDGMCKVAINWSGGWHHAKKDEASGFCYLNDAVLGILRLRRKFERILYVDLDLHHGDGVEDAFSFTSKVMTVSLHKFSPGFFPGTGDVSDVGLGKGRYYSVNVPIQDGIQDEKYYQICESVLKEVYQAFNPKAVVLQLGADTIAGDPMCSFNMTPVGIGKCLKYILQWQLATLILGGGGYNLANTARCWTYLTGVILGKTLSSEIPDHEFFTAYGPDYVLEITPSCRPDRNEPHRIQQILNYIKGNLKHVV
Experimental: Recombinant GST-HDAC1 and GST-HDAC-8 Protein expression and purification
Human cDNA library was prepared using cultured SW620 cells. Amplification of human HDAC1 and HDAC8 coding region from this cDNA library was cloned separately into the baculovirus expression pDEST20 vector and pFASTBAC vector respectively (GATEWAY Cloning Technology, Invitrogen Pte Ltd). […] Recombinant baculovirus was prepared using the Bac-To-Bac method following the manufacturer's instruction (Invitrogen Pte Ltd).
Expression of GST-HDAC1 or HTGST-HDAC8 was done by infecting SF9 cells (Invitrogen Pte Ltd) with pDEST20-HDAC1 or pFASTBAC-GST-HDAC8 baculovirus at MOI=1 for 48 h. Soluble cell lysate was incubated with pre-equilibrated Glutathione Sepharose 4B beads (Amersham) at 4° C. for 2 h. The beads were washed with PBS buffer for 3 times. The GST-HDAC1 protein or GST-HDAC8 protein was eluted by elution buffer containing 50 mM Tris, pH8.0, 150 mM NaCl, 1% Triton X-100 and 10 mM or 20 mM reduced Glutathione. The purified GST-HDAC1 protein or purified GST-HDAC8 protein was dialyzed with HDAC storage buffer containing 10 mM Tris, pH7.5, 100 mM NaCl and 3 mM MgCl2. 20% Glycerol was added to purified GST-HDAC1 protein or purified GST-HDAC8 before storage at −80° C.
In vitro HDAC assay for determination of IC50 values
The assay has been carried out in 96 well format and the BIOMOL fluorescent-based HDAC activity assay has been applied. […] Flur de lys Developer was added and the reaction was incubated for 10 min. Briefly, deacetylation of the substrate sensitizes it to the developer, which then generates a fluorophore The fluorophore is excited with 360 nm light and the emitted light (460 nm) is detected on a fluorometric plate reader (Tecan Ultra Microplate detection system, Tecan Group Ltd.).
The analytical software, Prism 3.0® (GraphPad Software Inc) has been used to generate IC50 from a series of data.

NCI H552 = assay: Cell-based proliferation assay for determination of GI50 values, lung cancer cell line; conditions: Homo sapiens; 96 h treatment, cyquant cell proliferation assay; read-out: Cellular activities GI50, NCI H552
Experimental: as §1, §2, §3

[2] = 500 nM HDAC8 enzyme, 200 μM Flur de lys p53 peptide substrate, room temperature 2 h, read-out: HDAC8 Enzyme Activity, IC50

GI50 (MDA-MB435)	IC50 (HDAC8 enzyme (GST-HDAC8); [2])	IC50 (HDAC8 enzyme (GST-HDAC8))	SMILES	Histone 4 acetylation [1]	GI50 (NCI H552)
4460 nM	100 nM		Nc1nc(-c2ccc(/C=C/C(=O)NO)cc2)cs1 [Example 23, 3-[4-(2-Amino-thiazol-4-yl)-phenyl]-N-hydroxy-acrylamide]	Active	13.3 µM
1490 nM	120 nM		O=C(NO)c1ccc(-c2ccc(CNCCc3ccccn3)cc2)s1 [Example 27]	Active	
		41 nM	O=C(Cc1ccc(-c2csc(NC(=O)Cc3ccccc3)n2)s1)NO [Example 1, N-Hydroxy-2-[5-(2-phenylacetylamino-thiazol-4-yl)-thiophen-2-yl]-acetamide]		2.36 µM
2660 nM	16 nM		O=C(NO)c1ccc(-c2ccc(CNCCc3ccccc3)cc2)s1 [Example 26, 5-[4-(Phenethylamino-methyl)-phenyl]-thiophene-2-carboxylic acid hydroxyamide]	Active	
